From patent publication US20040028616A1, “Inhibition of lung metastases by aerosol delivery of p53 gene and anti-cancer compounds” (priority 2002, published 2004) come the findings set out here.

Molecules are shown by their SMILES.

The test system of test [1] is B16-F10 lung metastases. Put plainly: In vivo effect of aerosol PEI-p53 and 9NC-DLPC on established B16-F10 lung metastases. On the set-up: species or system C57BL/6 mice. The conditions noted are these: lower dose, agent alone.
Method: C57BL/6 mice (7-8 weeks old, Harlan Sprague Dawley, Houston, Tex.) were injected via the tail vein with 25,000 B16-F10 cells on day 0. […] Animals in the single agent therapy group were administered p53 one time weekly or 9-nitrocamptothecin twice weekly.
The dosage for treatment was 2 mg plasmid/10 ml of aerosolized solution at a PEI:DNA (N:P) ratio of 10:1 for DNA, and 5 mg 9-nitrocamptothecin at a concentration of 0.5 mg/ml at a 9 nitrocamptothecin:dilauroylphosphatidylcholine weight ratio of 1:50. Aerosol delivery of drugs and genes was performed using 5% CO2-in-air for increased pulmonary deposition. On day 25-post tumor inoculation, the mice were sacrificed, lungs were fixed and the tumor index was calculated.
Tumor index was calculated by the formula: Tumor index=lung weights×average grade for the group. […] The growth of tumor contiguous to the lung was considered as a part of the lung for weighing the lungs. Values are mean+SD (n=10 mice per group).
The test system of test [2] is B16-F10 lung metastases. The experiment in a line: Survival of B16-F10 challenged mice with PEI-p53/9NC-DLPC aerosol treatment. Format: in vivo, C57BL/6 mice. The conditions noted are these: aerosol treatment from day 11 for two weeks; n=10 mice per group.
Method: C57BL/6 mice (n=10 mice per group) were injected via the tail vein with 25,000 B16-F10 cells on day 0 and the tumor was allowed to establish until day 10. The mice were then left untreated; or exposed to PEI-p53 aerosol complexes, to 9-nitrocamptothecin alone or to a sequential combination of p53 and 9-nitrocamptothecin, or 9-nitrocamptothecin and Neobam combination starting day 11 after tumor cell injection. Neobam was used as a negative control. The dosage was twice a week for drug or gene alone; and in combination once a week for gene and, twice a week for drug therapy. The mice were treated for two weeks, and then monitored over time for their survival.
The next test relates to B16-F10 cells. Put plainly: In vitro effect of p53 gene and 9NC on B16-F10 cell proliferation (hematocytometer cell count). It counts as cell-based. The conditions noted are these: drug >0.5 mg/ml; data not shown. How it is done: B16-F10 cells grown in tissue culture plates (20,000 cells/well in a 48 well plate; […] cells/well in a 12 well plate) are transfected with PEI-DNA complexes (1 μg/ml; p53 or control empty plasmid, Neo) for 24 hours. […] The proliferation of B16-F10 cells 24 hours later was evaluated using the hematocytometer. To count the cells, the cell layer was washed with PBS and then trypsinized with 0.25% trypsin. The Alamar Blue Assay (Trek Diagnostic Systems, Inc) was also performed to test the viability of the cells (data not shown).
Control groups included cells treated with the genes (p53 and Neobam) alone, or with the drug (9-nitrocamptothecin) alone, or with Neobam and 9-nitrocamptothecin in combination. […] The p53 expression levels in parental and p53 treated B16-F10 cells have been reported previously (8).

Regarding `CC[C@@]1(O)C(=O)OCc2c1cc1n(c2=O)Cc2cc3c([N+](=O)[O-])cccc3nc2-1` [9-nitrocamptothecin], the “suppression of metastatic growth or increase of survival by single agent” value with B16-F10 lung metastases [1] is given as “neither the p53 nor the 9-nitrocamptothecin alone is potent enough”. Also, the mean survival time with B16-F10 lung metastases [2] stood at 29 ± 3 days. Also, the “inhibition of B16-F10 as single agent, increased drug concentration” value in the test with B16-F10 cells is recorded as “very potent inhibition”.
